# Entries after “also recorded” stand apart in the source; their conditions may differ.
# System: target microorganisms
# Assay: Screen of synthesized peptides for binding to target microorganisms (targeting peptides, Tables 2 and 3)
# Conditions: microorganism(s) the targeting peptide was identified as binding to (Table 3)
# Experimental: Once noted, these peptides were batch synthesized on a multiplex peptide synthesizer, yielding 5-10 mg of each peptide that could readily be screened for biological activity (e.g., binding activity and/or antimicrobial activity.
# Other suitable targeting peptides include the peptides that have been identified as binding to particular target organisms as shown in Table 3 and/or Table 4.
substance,measurement,value
1T-1 (YVNYNQSFNSGW; synthetic novel tartgeting peptide IT-1),Target(s),S. mutans
1T-2 (NIFEYFLE; synthetic novel tartgeting peptide IT-2),Target(s),S. gordonii; also recorded: S. mitis; also recorded: S. oralis; also recorded: V. atypica; also recorded: Lactobacillus casei; also recorded: Saliva-derived biofilms; also recorded: S. mutans; also recorded: S. sanguinis
1T-3 (VLGIAGGLDAYGELVGGN; synthetic novel tartgeting peptide IT-3),Target(s),S. mutans; also recorded: S. gordonii
1T-4 (LDAYGELVGGN; synthetic novel tartgeting peptide IT-4),Target(s),S. mutans; also recorded: S. gordonii; also recorded: S. sanguinis; also recorded: S. oralis; also recorded: V. atypica; also recorded: L. casei
1T-5 (LGPIAGAAIGWDLGAISGAGLGWANFCQ; synthetic novel tartgeting peptide IT-5),Target(s),S. mutans; also recorded: S. sanguinis
1T-6 (KFINGVLSQFVLERK; synthetic novel tartgeting peptide IT-6),Target(s),S. mutans
1T-7 (SQRIIEPVKSPQPYPGFSVS; synthetic novel tartgeting peptide IT-7),Target(s),Myxococcus xanthus
1T-8 (FSVAACGEQRAVTFVLLIEDLI; synthetic novel tartgeting peptide IT-8),Target(s),M. xanthus
1T-9 (WAWAESPRCVSTRSNIHALAFRVEVAALT; synthetic novel tartgeting peptide IT-9),Target(s),M. xanthus
1T-10 (SPAGLPGDGDEA; synthetic novel tartgeting peptide IT-10),Target(s),M. xanthus
1T-11 (RISE; synthetic novel tartgeting peptide IT-11),Target(s),S. mutans; also recorded: S. epidermidis; also recorded: P. aeruginosa
1T-12 (FGNIFKGLKDVIETIVKWTAAK; synthetic novel tartgeting peptide IT-12),Target(s),Corynebacterium; also recorded: xerosis; also recorded: striatum; also recorded: S. epidermidis; also recorded: S. mutans
1T-13 (FRSPCINNNSLQPPGVYPAR; synthetic novel tartgeting peptide IT-13),Target(s),S. aureus; also recorded: S. epidermidis; also recorded: P. aeruginosa
1T-14 (ALAGLAGLISGK; synthetic novel tartgeting peptide IT-14),Target(s),S. mutans; also recorded: S. aureus; also recorded: S. epidermidis; also recorded: C. xerosis
1T-15 (DVILRVEAQ; synthetic novel tartgeting peptide IT-15),Target(s),S. mutans
1T-16 (IDMR; synthetic novel tartgeting peptide IT-16),Target(s),P. aeruginosa
1T-17 (NNAIVYIS; synthetic novel tartgeting peptide IT-17),Target(s),S. mutans
1T-18 (YSKTLHFAD; synthetic novel tartgeting peptide IT-18),Target(s),S. aureus; also recorded: S. epidermidis; also recorded: C. striatum; also recorded: P. aeruginosa
1T-19 (PGAFRNPQMPRG; synthetic novel tartgeting peptide IT-19),Target(s),S. aureus; also recorded: S. epidermidis; also recorded: P. aeruginosa
1T-20 (PALVDLSNKEAVWAVLDDHS; synthetic novel tartgeting peptide IT-20),Target(s),S. mutans; also recorded: P. aeruginosa
1T-21 (YVEEAVRAALKKEARISTEDTPVNLPSFDC; synthetic novel tartgeting peptide IT-21),Target(s),S. mutans; also recorded: P. aeruginosa
1T-22 (VPLDDGTRRPEVARNRDKDRED; synthetic novel tartgeting peptide IT-22),Target(s),S. epidermidis; also recorded: P. aeruginosa
1T-23 (PALVDLSNKEAVWAVLDDHS; synthetic novel tartgeting peptide IT-23),Target(s),S. mutans; also recorded: P. aeruginosa
1T-24 (EEAEEKLAEVSQAVKRLVR; synthetic novel tartgeting peptide IT-24),Target(s),P. aeruginosa
1T-25 (VGLDVSVLVLFFGLQLLSVLLGAMIR; synthetic novel tartgeting peptide IT-25),Target(s),S. aureus; also recorded: S. epidermidis; also recorded: C. xerosis; also recorded: C. striatum; also recorded: P. aeruginosa
1T-26 (LTILPTTFFAIIVPILAVAFIAYSGFKIKGIVEHKDQW; synthetic novel tartgeting peptide IT-26),Target(s),jeikeium; also recorded: C. xerosis; also recorded: C. striatum; also recorded: P. aeruginosa; also recorded: S. mutans; also recorded: S. aureus; also recorded: S. epidermidis; also recorded: Corynebacterium
1T-27 (ALFVSLEQFLVVVAKSVFALCHSGTLS; synthetic novel tartgeting peptide IT-27),Target(s),S. mutans; also recorded: S. aureus; also recorded: S. epidermidis; also recorded: C. jeikeium; also recorded: C. xerosis; also recorded: C. striatum; also recorded: P. aeruginosa
1T-28 (VSRDEAMEFIDREWTTLQPAGKSHA; synthetic novel tartgeting peptide IT-28),Target(s),P. aeruginosa
1T-29 (GSVIKKRRKRMSKKKHRKMLRRTRVQRRKLGK; synthetic novel tartgeting peptide IT-29),Target(s),S. mutans; also recorded: S. aureus; also recorded: S. epidermidis; also recorded: C. jeikeium; also recorded: C. xerosis; also recorded: C. striatum; also recorded: P. aeruginosa
1T-30 (GKAKPYQVRQVLRAVDKLETRRKKGGR; synthetic novel tartgeting peptide IT-30),Target(s),S. aureus; also recorded: S. epidermidis; also recorded: C. xerosis; also recorded: C. striatum; also recorded: P. aeruginosa
1T-31 (NATGTDIGEVTLTLGRFS; synthetic novel tartgeting peptide IT-31),Target(s),S. mutans; also recorded: P. aeruginosa
1T-32 (VSFLAGWLCLGLAAWRLGNA; synthetic novel tartgeting peptide IT-32),Target(s),S. mutans
1T-33 (VRTLTILVIFIFNYLKSISYKLKQPFENNLAQSMISI; synthetic novel tartgeting peptide IT-33),Target(s),S. aureus; also recorded: S. epidermidis; also recorded: C. jeikeium; also recorded: C. xerosis; also recorded: C. striatum; also recorded: P. aeruginosa
1T-34 (AFWLNILLTLLGYIPGIVHAVYIIAKR; synthetic novel tartgeting peptide IT-34),Target(s),S. aureus; also recorded: S. epidermidis; also recorded: C. jeikeium; also recorded: C. xerosis; also recorded: C. striatum; also recorded: P. aeruginosa
1T-35 (EICLTLVFPIRGSYSEAAKFPVPIHIVEDGTVELPK; synthetic novel tartgeting peptide IT-35),Target(s),P. aeruginosa
1T-36 (VYRHLRFIDGKLVEIRLERK; synthetic novel tartgeting peptide IT-36),Target(s),S. aureus; also recorded: S. epidermidis; also recorded: C. jeikeium; also recorded: C. xerosis; also recorded: C. striatum; also recorded: P. aeruginosa
1T-37 (YIVGALVILAVAGLIYSMLRKA; synthetic novel tartgeting peptide IT-37),Target(s),S. mutans; also recorded: S. aereus; also recorded: S. epidermidis; also recorded: C. jeikeium; also recorded: C. xerosis; also recorded: C. striatum; also recorded: P. aeruginosa
1T-38 (VMFVLTRGRSPRPMIPAY; synthetic novel tartgeting peptide IT-38),Target(s),S. mutans; also recorded: S. aereus; also recorded: S. epidermidis; also recorded: C. jeikeium; also recorded: C. xerosis; also recorded: C. striatum; also recorded: P. aeruginosa
1T-39 (FGFCVWMYQLLAGPPGPPA; synthetic novel tartgeting peptide IT-39),Target(s),S. mutans; also recorded: P. aeruginosa
1T-40 (QRVSLWSEVEHEFR; synthetic novel tartgeting peptide IT-40),Target(s),S. mutans; also recorded: P. aeruginosa
1T-41 (KRGSKIVIAIAVVLIVLAGVWVW; synthetic novel tartgeting peptide IT-41),Target(s),S. mutans; also recorded: S. aureus; also recorded: S. epidermidis; also recorded: C. jeikeium; also recorded: C. striatum; also recorded: P. aeruginosa
1T-42 (TVLDWLSLALATGLFVYLLVALLRADRA; synthetic novel tartgeting peptide IT-42),Target(s),S. aureus; also recorded: S. epidermidis; also recorded: C. xerosis; also recorded: C. striatum; also recorded: P. aeruginosa
1T-43 (DRCLSVLSWSPPKVSPLI; synthetic novel tartgeting peptide IT-43),Target(s),C. jeikium; also recorded: P. aeruginosa
1T-44 (DPALADFAAGMRAQVRT; synthetic novel tartgeting peptide IT-44),Target(s),S. mutans; also recorded: S. aureus; also recorded: S. epidermidis; also recorded: C. jeikeium; also recorded: C. striatum; also recorded: P. aeruginosa
1T-45 (WTKPSFTDLRLGFEVTLYFANR; synthetic novel tartgeting peptide IT-45),Target(s),S. aureus; also recorded: S. epidermidis; also recorded: C. striatum; also recorded: P. aeruginosa
1T-46 (FSFKQRVMFRKEVERLR; synthetic novel tartgeting peptide IT-46),Target(s),S. aureus; also recorded: S. epidermidis; also recorded: C. jeikeium; also recorded: C. xerosis; also recorded: C. striatum; also recorded: P. aeruginosa
1T-47 (VIKISVPGQVQMLIP; synthetic novel tartgeting peptide IT-47),Target(s),S. mutans; also recorded: S. epidermidis; also recorded: P. aeruginosa
1T-48 (KLQVHHGRATHTLLLQPPLCAPGTIR; synthetic novel tartgeting peptide IT-48),Target(s),S. aureus; also recorded: S. epidermidis; also recorded: C. jeikeium; also recorded: C. xerosis; also recorded: C. striatum; also recorded: P. aeruginosa
1T-49 (SLVRIHDQQPWVTRGAFIDAARTCS; synthetic novel tartgeting peptide IT-49),Target(s),S. aureus; also recorded: S. epidermidis; also recorded: C. jeikeium; also recorded: P. aeruginosa
1T-50 (HSDEPIPNILFKSDSVH; synthetic novel tartgeting peptide IT-50),Target(s),P. aeruginosa
1T-51 (GKPKRMPAEFIDGYGQALLAGA; synthetic novel tartgeting peptide IT-51),Target(s),S. aureus; also recorded: P. aeruginosa
